Laboratory results published in US5130302A, “Boronated nucleoside, nucleotide and oligonucleotide compounds, compositions and methods for using same” (Boron Bilogicals, Inc., priority 1989, dated 1992).
In brackets after ≈: the same amount, converted by molar mass. Read-outs that look alike come from different tables or passages of the source.

Assays:
[1] = test system: Hela-S; test: Cytotoxicity, Hela-S cervical carcinoma suspended; type: cell-based; conditions: Homo sapiens, read-out: ED50 (cytotoxicity), Hela-S
Experimental: 7. Hela-S, ATCC-CCL 2.2, cervical carcinoma suspended, S. Schreiber and N. Ikemoto, supra; T. Puck et al., J. Exp. Med. 103. 273 (1956) (grown in Joklik+5% FBS, Ham's F12 +5% FBS).
(§1) The cytotoxic screens were conducted according to NIH protocols, see E. Huang et al., J. Pharm. Sci. 61, 108 (1972), with 10^4 cells, growth medium, antibiotics and drugs from 0.5 to 100 μg/ml final concentration. For the L1210, Hela-S, amd Tmolt, (i.e. the suspended cells), the incubations were conducted in sterile test tubes in a final volume of 1 ml for 72 hr at 37° C. in a CO2 incubator. The cells on the third day were still in log growth phase. The number of cells/ml are determined using trypan blue exclusion and a hemocytometer. See, e.g., R. Geran, supra. For solid tumors there is plated out in wells 1×10^4 cells with 1 ml of medium+antibiotics and the other components of growth. When the controls have converged (≈95%) then the density of the cells is estimated and the ED50 values calculated.

[2] = test system: Human glioma cell EH 118 MG; test: Cytotoxicity, human glioma cell EH 118 MG; type: cell-based; conditions: read-out: ED50 (cytotoxicity), Glioma
Experimental: 9. Human glioma cell EH 118 MG transformed stain of Rous sarcoma virus, J. Lutton et al., J. Biol. Chem. 254, 11181 (1979) (grown in DMEM-H+10% FCS).
as §1

[3] = test system: P388; test: Cytotoxicity, P388; type: cell-based
Experimental: as §1

[4] = test system: SW480 human colorectal carcinoma; test: Cytotoxicity, colon adenocarcinoma SW480 human colorectal carcinoma; type: cell-based
Experimental: (§2) More specifically, the cytotoxic activity of the boron adducts of the present invention was tested on the following neoplastic cell lines:
3. Colon adenocarcinoma SW480 human colorectal carcinoma. A. Leibovitz et al., Cancer Res. 36, 4562 (1976) (grown in L15+10% FBS).
as §1

[5] = test system: KB epidermoid oral nesopharnyx; test: Cytotoxicity, KB epidermoid oral nasopharynx; type: cell-based; conditions: Homo sapiens, read-out: ED50 (cytotoxicity), KB
Experimental: 6. KB epidermoid oral nesopharnyx. R. Geran, supra: H. Eagle, Proc. Soc. Expt.
Biol. 89, 362 (1955)(grown in EMEM +5% calf serum).
as §1

[6] = test system: L1210 lymphoid leukemia cells; test: Cytotoxicity, L1210 lymphoid leukemia cells; type: cell-based; conditions: Mus musculus, read-out: ED50 (cytotoxicity), L1210
Experimental: as §2
1. L1210 lymphoid leukemia cells, R. Geran et al., Cancer Chemotherapy Reports 3, 7 (1972).(grown in RPMI+15% FBS+antibiotics).
as §1

[7] = test system: Lung bronchogenic MB-9812; test: Cytotoxicity, lung bronchogenic MB-9812; type: cell-based; conditions: read-out: ED50 (cytotoxicity), Lung Bronchogenic
Experimental: 4. Lung bronchogenic MB-9812, S. Aronson et al., Expt. Cell Res. 61, 1 (1970) (grown in EMEM+10% FBS+NEAA).
as §1

[8] = test system: Tmolt acute lymphoblastic T cell leukemia; test: Cytotoxicity, Tmolt acute lymphoblastic T cell leukemia; type: cell-based; conditions: T-cell, read-out: ED50 (cytotoxicity), Tmolt
Experimental: as §2
2. Tmolt^S acute lymphoblastic T cell leukemia, S. Schreiber and N. Ikemoto, Tett. Lett 29, 3211 (1988) (grown in RPMI - 1640+10% FBS).
as §1

[9] = test system: Human Osteosarcoma TE418; test: Cytotoxicity, human osteosarcoma TE418; type: cell-based; conditions: read-out: ED50 (cytotoxicity), Osteo sarcoma
Experimental: 5. Human Osteosarcoma TE418. H. Smith et al., Int. J. Cancer 17, 219 (1976) (grown in DMEM+10% FBS).
as §1

[10] = Stability in aqueous medium by HPLC; type: physicochemical
Experimental: By HPLC, compounds 3a, 3b, and 3d in aqueous medium (0.01 M TEAAc) are >94% stable over a period of 168 h. […], however, is >50% decomposed during this period.

[11] = test system: serum cholesterol levels; test: Antihyperlipidemic activity, serum cholesterol; type: in vivo, male CF1 mice; conditions: 8 mg/kg/day; intraperitoneal for 16d; mice
Experimental: (§3) Compounds to be tested were suspended in 1% aqueous carboxymethylcellulose,homogenized and administered to male CF1 mice (25 g) intraperitoneally for 16d. On days 9 and 16, blood was obtained by tail vein bleeding, and the serum was separated by centrifugation for three minutes. The serum cholesterol levels were determined by a modification of the Liebermann--Burchard reaction in accordance with known techniques. See A. Ness, et al., Clin. Chim. Acta 10, 229 (1964). Serum triglyceride levels were determined with a commercial kit, the Fisher Hycel Triglyceride Test Kit, for a different group of animals bled on day 16.

[12] = test system: Serum triglyceride levels; test: Antihyperlipidemic activity, serum triglyceride; type: in vivo, male CF1 mice; conditions: 8 mg/kg/day; intraperitoneal, bled on day 16; mice
Experimental: as §3

[13] = test system: inflammatory response; test: Anti-inflammatory activity, carrageenan-injected hind foot; type: in vivo, CF1 male mice; conditions: 8 mg/kg/day; intraperitoneal, 3 hours and 30 minutes prior to carrageenan; mice
Experimental: CF1 male mice (~25 g) were administered test drugs at 5-40 mg/kg in 0.05% Tween 80--H2 O intraperitoneally 3 hours prior to and 30 minutes prior to the injection of 0.2 ml of 1% carrageenan in 0.9% saline into the plantar surface of the right hind foot. Saline was injected into the left hind foot, which serves as a base line. After 3 hours, both feet were excised at the tibiotarsal (ankle) joint according to standard procedures. See C. Winter et al., Proc. Soc. Expt. Biol Med. 544, 111 (1962); A. Roszkawski et al., J. Pharm. Exp. Ther. 179, 114 (1971). Control mice afforded a 78±3 mg increase in paw weight.

[14] = Mus musculus, P388, read-out: ED50 (cytotoxicity), P388
[15] = Homo sapiens, SW480, read-out: ED50 (cytotoxicity), Adeno Carcinoma SW480
[16] = Mus musculus, P388; read-out: ED50 (cytotoxicity), P388

| Structure (SMILES) | IC50 ([1]; HeLa, 72 h) [µg/mL] | IC50 [2] [µg/mL] | IC50 [3, 14] [µg/mL] | IC50 [4, 15] [µg/mL] | IC50 [5] [µg/mL] | IC50 ([6]; L1210, 72 h) [µg/mL] | IC50 [7] [µg/mL] | IC50 ([8]; 72 h) [µg/mL] | IC50 [3, 16] [µg/mL] | IC50 ([6]; L1210, 72 hr at 37° C.) [µg/mL] | further results |
| --- | --- | --- | --- | --- | --- | --- | --- | --- | --- | --- | --- |
| CC(C)[Si](OC[C@H]1O[C@@H](n2c[n+]([BH2-]C#N)c3c(=O)[nH]c(N)nc32)C[C@@H]1O[Si](C(C)C)(C(C)C)C(C)C)(C(C)C)C(C)C [Compound 2a, 3',5'-O-Bis(triisopropylsilyl)-2'-deoxyguanosine N7-cyanoborane] | 2.83 (≈ 4.57 µM) | 7.61 (≈ 12.3 µM) | 5.13 (≈ 8.29 µM) | 2.67 (≈ 4.31 µM) | 2.67 (≈ 4.31 µM) | 6.05 (≈ 9.78 µM) | 4.05 (≈ 6.55 µM) | 2.26 (≈ 3.65 µM) | – | – | IC50 [9]: 7.2 µg/mL (≈ 11.6 µM) |
| CC(C)[Si](OC[C@H]1O[C@@H](n2c[n+]([BH2-]C#N)c3c(=O)[nH]cnc32)C[C@@H]1O[Si](C(C)C)(C(C)C)C(C)C)(C(C)C)C(C)C [Compound 2b, 3', 5-O-Bis(triisopropylislyl)-2'-deoxyinosine-N7-cyanoborane] | 3.26 (≈ 5.4 µM) | 6.21 (≈ 10.3 µM) | 7.31 (≈ 12.1 µM) | 2.57 (≈ 4.26 µM) | 5.29 (≈ 8.76 µM) | 4 (≈ 6.63 µM) | 6.2 (≈ 10.3 µM) | 6.49 (≈ 10.7 µM) | – | – | – |
| CC(C)[Si](OC[C@H]1O[C@@H](n2cnc3c(N)[n+]([BH2-]C#N)cnc32)C[C@@H]1O[Si](C(C)C)(C(C)C)C(C)C)(C(C)C)C(C)C [Compound 2c, 3', 5'-O-Bis(triisopropylsilyl)-2'-deoxyadenosine-N1-cyanoborane] | 3.42 (≈ 5.67 µM) | 4.99 (≈ 8.28 µM) | 7.46 (≈ 12.4 µM) | 2.87 (≈ 4.76 µM) | 5.79 (≈ 9.61 µM) | 6.86 (≈ 11.4 µM) | 5.58 (≈ 9.26 µM) | 1.88 (≈ 3.12 µM) | – | – | – |
| CC(C)[Si](OC[C@H]1O[C@@H](n2ccc(N)[n+]([BH2-]C#N)c2=O)C[C@@H]1O[Si](C(C)C)(C(C)C)C(C)C)(C(C)C)C(C)C [Compound 2d, 3', 5'-O-Bis(triisopropylsilyl)-2'-deoxycytidine-N3-cyanoborane] | – | – | – | – | 5.72 (≈ 9.88 µM) | – | – | – | 7.26 (≈ 12.5 µM) | 4.78 (≈ 8.26 µM) | IC50 ([1]; Hela-S, 72 hr at 37° C.): 2.94 µg/mL (≈ 5.08 µM); IC50 ([2]; Glioma EH 118 MG): 6.77 µg/mL (≈ 11.7 µM); IC50 ([4]; Homo sapiens, SW480; read-out: ED50 (cytotoxicity), Adeno Carcinoma SW480): 2.73 µg/mL (≈ 4.72 µM); IC50 ([7]; Lung bronchogenic MB-9812): 6.6 µg/mL (≈ 11.4 µM); IC50 ([8]; Tmolt, 72 hr at 37° C.): 3.36 µg/mL (≈ 5.81 µM) |
| N#C[BH2-][n+]1cn([C@H]2C[C@H](O)[C@@H](CO)O2)c2nc(N)[nH]c(=O)c21 [Compound 3a, 2'-Deoxyguanosine-N7-cyanoborane] | – | – | – | – | – | – | – | – | 5.87 (≈ 19.2 µM) | 5.08 (≈ 16.6 µM) | remaining at 168 h ([10]; 0.01 M TEAAc, period of 168 h, HPLC, read-out: stable in aqueous medium): > 94%; stability in aqueous medium ([10]; in words, aqueous medium): good stability; Hypolipidemic: Cholesterol Inhibition, % inhibition [11]: 44%; Hypolipidemic: Triglyceride Inhibition, % inhibition [12]: 37%; Antiinflammatory Activity, % inhibition [13]: 22% |
